Measured values as given in US20120189544A1, “GASTROINTESTINAL DISEASE OR DISORDER IMAGING AND TREATMENT” (SALK INSTITUTE FOR BIOLOGICAL STUDIES, priority 2009, published 2012).

What was measured:
[1] = tested on: PTEN-deficient glioblastomas and metastatic renal cell carcinomas; details: patients with PTEN-deficient glioblastomas and metastatic renal cell carcinomas; cited from earlier work
[2] = tested on: pre-existing GI polyps in Lkb1^+/− mice
Description: Mouse Colony Maintenance, Treatment Regimen and Polyp Measurement. Lkb1^+/+ and Lkb1^+/− mice, maintained on an FVB/N genetic background, were monitored for the development of gastrointestinal polyps. Mice with clinical signs of disease were euthanized and necropsied. The groups were vehicle treated or RAPA treated mice. […] Polyps were scored and total polyp burden was measured).
After two months of treatment, polyp size and number in each mouse were quantitated.

Row | SMILES | clinical outcome [1] | reduction in the overall mass of polyps ([2]; Lkb1+/− mice treated vs untreated with rapamycin, two months) [%] | mean polyp burden (total polyp burden) ([2]; Lkb1+/− mice, 10 mg/kg rapamycin i.p., two months, n=10, VEH 9.6±5.5, p=0.00026) | mean polyp size ([2]; Lkb1+/− mice, n=10, VEH 4.4±0.8, p<0.0001) | mean polyp number ([2]; Lkb1+/− mice, visible polyps between 1 and 5 mm scored, n=10, VEH 5.3±1.8, p=0.00022)
1 | CO[C@H]1C[C@@H]2CC[C@@H](C)[C@@](O)(O2)C(=O)C(=O)N2CCCC[C@H]2C(=O)O[C@H]([C@H](C)C[C@@H]2CC[C@@H](OC(=O)C(C)(CO)CO)[C@H](OC)C2)CC(=O)[C@H](C)/C=C(\C)[C@@H](O)[C@@H](OC)C(=O)[C@H](C)C[C@H](C)/C=C/C=C/C=C/1C [Temsirolimus, temsirolimus] | palliative success |  |  |  | 
2 | CO[C@H]1C[C@@H]2CC[C@@H](C)[C@@](O)(O2)C(=O)C(=O)N2CCCC[C@H]2C(=O)O[C@H]([C@H](C)C[C@@H]2CC[C@@H](O)[C@H](OC)C2)CC(=O)[C@H](C)/C=C(\C)[C@@H](O)[C@@H](OC)C(=O)[C@H](C)C[C@H](C)/C=C/C=C/C=C/1C [rapamycin] |  | 80 | 2.0±1.2 | 1.2±0.9 | 2.8±1.4
